{"source": "patent US10131652B2", "about": "“Pyrimidinyloxy benzene derivatives as herbicides” (E. I. DU PONT DE NEMOURS AND COMPANY, priority 2014, dated 2018)", "assay_type_in_all_cases": "in vivo", "details_in_all_cases": "scale 0 to 100", "key": {"[1]": {"tested_on": "fall panicum (Panicum dichotomiflorum)", "assay": "Test F pre-/postemergence plant response", "in_short": "(§1)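 Formulation: non-phytotoxic solvent mix + surfactant. Preemergence: applied to seeded silt loam. Postemergence: foliar, 1- to 4-leaf plants, 2–18 cm. Greenhouse hold 14–21 days; visual score vs controls, 0 = no effect, 100 = complete control; dash = not tested.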"}, "[2]": {"tested_on": "field bindweed (Convolvulus arvensis)", "assay": "Test F pre-/postemergence plant response", "in_short": "as §1"}, "[3]": {"tested_on": "giant foxtail (Setaria faberii)", "assay": "Test F pre-/postemergence plant response", "in_short": "as §1"}, "kochia (Kochia scoparia)": {"tested_on": "kochia (Kochia scoparia)", "assay": "Test F pre-/postemergence plant response", "in_short": "as §1"}, "[4]": {"tested_on": "large (Lg) crabgrass (Digitaria sanguinalis)", "assay": "Test F pre-/postemergence plant response", "in_short": "as §1"}, "[5]": {"tested_on": "morningglory (Ipomoea coccinea)", "assay": "Test F pre-/postemergence plant response", "in_short": "as §1"}, "[6]": {"tested_on": "nightshade (eastern black nightshade, Solanum ptycanthum)", "assay": "Test F pre-/postemergence plant response", "in_short": "as §1"}, "[7]": {"tested_on": "waterhemp_RES1 (ALS & Triazine resistant common waterhemp, Amaranthus rudis)", "assay": "Test F postemergence plant response", "in_short": "(§2)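 Postemergence application to plants 2–18 cm tall (1- to 4-leaf stage), then held in greenhouse 14–21 days. Visual rating against untreated controls on a 0–100 scale (0 no effect, 100 complete control).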"}, "[8]": {"tested_on": "waterhemp_RES2 (ALS & HPPD resistant common waterhemp, Amaranthus rudis)", "assay": "Test F postemergence plant response", "in_short": "as §2"}}, "data": [{"compound": "CC(F)(F)c1cc(-c2ccccc2Oc2ncc(Br)cn2)no1", "note": "[Compound 149]", "values": [{"measurement": "Plant response rating, Panicum, Fall", "setting": "[1]; 16 g ai/ha Postemergence", "value": 10}, {"measurement": "Plant response rating, Panicum, Fall", "setting": "[1]; 16 g ai/ha Preemergence", "value": 0}, {"measurement": "Plant response rating, Panicum, Fall", "setting": "[1]; 31 g ai/ha Postemergence", "value": 20}, {"measurement": "Plant response rating, Panicum, Fall", "setting": "[1]; 31 g ai/ha Preemergence", "value": 80}, {"measurement": "Plant response rating, Panicum, Fall", "setting": "[1]; 62 g ai/ha Postemergence", "value": 20}, {"measurement": "Plant response rating, Panicum, Fall", "setting": "[1]; 125 g ai/ha Postemergence", "value": 40}, {"measurement": "Plant response rating, Panicum, Fall", "setting": "[1]; 125 g ai/ha Preemergence", "value": 100}, {"measurement": "Plant response rating, Panicum, Fall", "setting": "[1]; Preemergence", "value": 98}, {"measurement": "Plant response rating, Field Bindweed", "setting": "[2]; 16 g ai/ha Postemergence", "value": 60}, {"measurement": "Plant response rating, Field Bindweed", "setting": "[2]; 16 g ai/ha Preemergence", "value": 0}, {"measurement": "Plant response rating, Field Bindweed", "setting": "[2]; 31 g ai/ha Postemergence", "value": 50}, {"measurement": "Plant response rating, Field Bindweed", "setting": "[2]; 31 g ai/ha Preemergence", "value": 50}, {"measurement": "Plant response rating, Field Bindweed", "setting": "[2]; 62 g ai/ha Postemergence", "value": 50}, {"measurement": "Plant response rating, Field Bindweed", "setting": "[2]; 62 g ai/ha Preemergence", "value": 35}, {"measurement": "Plant response rating, Field Bindweed", "setting": "[2]; 125 g ai/ha Postemergence", "value": 75}, {"measurement": "Plant response rating, Field Bindweed", "setting": "[2]; 125 g ai/ha Preemergence", "value": 25}, {"measurement": "Plant response rating, Foxtail, Giant", "setting": "[3]; 16 g ai/ha Preemergence", "value": 0}, {"measurement": "Plant response rating, Foxtail, Giant", "setting": "[3]; 31 g ai/ha Preemergence", "value": 20}, {"measurement": "Plant response rating, Foxtail, Giant", "setting": "[3]; 62 g ai/ha Preemergence", "value": 40}, {"measurement": "Plant response rating, Foxtail, Giant", "setting": "[3]; 125 g ai/ha Preemergence", "value": 85}, {"measurement": "Plant response rating, Kochia", "setting": "kochia (Kochia scoparia); 16 g ai/ha Postemergence", "value": 60}, {"measurement": "Plant response rating, Kochia", "setting": "kochia (Kochia scoparia); 16 g ai/ha Preemergence", "value": 0}, {"measurement": "Plant response rating, Kochia", "setting": "kochia (Kochia scoparia); 31 g ai/ha Postemergence", "value": 80}, {"measurement": "Plant response rating, Kochia", "setting": "kochia (Kochia scoparia); 31 g ai/ha Preemergence", "value": 0}, {"measurement": "Plant response rating, Kochia", "setting": "kochia (Kochia scoparia); 62 g ai/ha Postemergence", "value": 90}, {"measurement": "Plant response rating, Kochia", "setting": "kochia (Kochia scoparia); 125 g ai/ha Postemergence", "value": 95}, {"measurement": "Plant response rating, Kochia", "setting": "kochia (Kochia scoparia); 125 g ai/ha Preemergence", "value": 90}, {"measurement": "Plant response rating, Kochia", "setting": "kochia (Kochia scoparia); Preemergence", "value": 75}, {"measurement": "Plant response rating, Crabgrass, Large", "setting": "[4]; 16 g ai/ha Preemergence", "value": 0}, {"measurement": "Plant response rating, Crabgrass, Large", "setting": "[4]; 31 g ai/ha Preemergence", "value": 0}, {"measurement": "Plant response rating, Crabgrass, Large", "setting": "[4]; 62 g ai/ha Preemergence", "value": 70}, {"measurement": "Plant response rating, Crabgrass, Large", "setting": "[4]; 125 g ai/ha Preemergence", "value": 85}, {"measurement": "Plant response rating, Morningglory", "setting": "[5]; 16 g ai/ha Preemergence", "value": 0}, {"measurement": "Plant response rating, Morningglory", "setting": "[5]; 31 g ai/ha Preemergence", "value": 0}, {"measurement": "Plant response rating, Morningglory", "setting": "[5]; 125 g ai/ha Preemergence", "value": 10}, {"measurement": "Plant response rating, Morningglory", "setting": "[5]; Preemergence", "value": 0}, {"measurement": "Plant response rating, Nightshade", "setting": "[6]; 16 g ai/ha Preemergence", "value": 0}, {"measurement": "Plant response rating, Nightshade", "setting": "[6]; 31 g ai/ha Preemergence", "value": 80}, {"measurement": "Plant response rating, Nightshade", "setting": "[6]; 125 g ai/ha Preemergence", "value": 100}, {"measurement": "Plant response rating, Nightshade", "setting": "[6]; Preemergence", "value": 98}, {"measurement": "Plant response rating, Waterhemp_RES1", "setting": "[7]; 16 g ai/ha Postemergence", "value": 80}, {"measurement": "Plant response rating, Waterhemp_RES1", "setting": "[7]; 31 g ai/ha Postemergence", "value": 85}, {"measurement": "Plant response rating, Waterhemp_RES1", "setting": "[7]; 62 g ai/ha Postemergence", "value": 90}, {"measurement": "Plant response rating, Waterhemp_RES1", "setting": "[7]; 125 g ai/ha Postemergence", "value": 100}, {"measurement": "Plant response rating, Waterhemp_RES2", "setting": "[8]; 16 g ai/ha Postemergence", "value": 95}, {"measurement": "Plant response rating, Waterhemp_RES2", "setting": "[8]; 31 g ai/ha Postemergence", "value": 95}, {"measurement": "Plant response rating, Waterhemp_RES2", "setting": "[8]; 62 g ai/ha Postemergence", "value": 100}, {"measurement": "Plant response rating, Waterhemp_RES2", "setting": "[8]; 125 g ai/ha Postemergence", "value": 100}]}, {"compound": "FC(F)c1cc(-c2c(Cl)cccc2Oc2ncc(Cl)cn2)no1", "note": "[Compound 179]", "values": [{"measurement": "Plant response rating, Panicum, Fall", "setting": "[1]; 16 g ai/ha Postemergence", "value": 15}, {"measurement": "Plant response rating, Panicum, Fall", "setting": "[1]; 16 g ai/ha Preemergence", "value": 0}, {"measurement": "Plant response rating, Panicum, Fall", "setting": "[1]; 31 g ai/ha Postemergence", "value": 10}, {"measurement": "Plant response rating, Panicum, Fall", "setting": "[1]; 31 g ai/ha Preemergence", "value": 0}, {"measurement": "Plant response rating, Panicum, Fall", "setting": "[1]; 62 g ai/ha Postemergence", "value": 15}, {"measurement": "Plant response rating, Panicum, Fall", "setting": "[1]; 125 g ai/ha Postemergence", "value": 10}, {"measurement": "Plant response rating, Panicum, Fall", "setting": "[1]; 125 g ai/ha Preemergence", "value": 75}, {"measurement": "Plant response rating, Panicum, Fall", "setting": "[1]; Preemergence", "value": 50}, {"measurement": "Plant response rating, Field Bindweed", "setting": "[2]; 16 g ai/ha Postemergence", "value": 15}, {"measurement": "Plant response rating, Field Bindweed", "setting": "[2]; 16 g ai/ha Preemergence", "value": 0}, {"measurement": "Plant response rating, Field Bindweed", "setting": "[2]; 31 g ai/ha Postemergence", "value": 25}, {"measurement": "Plant response rating, Field Bindweed", "setting": "[2]; 31 g ai/ha Preemergence", "value": 0}, {"measurement": "Plant response rating, Field Bindweed", "setting": "[2]; 62 g ai/ha Postemergence", "value": 35}, {"measurement": "Plant response rating, Field Bindweed", "setting": "[2]; 62 g ai/ha Preemergence", "value": 0}, {"measurement": "Plant response rating, Field Bindweed", "setting": "[2]; 125 g ai/ha Postemergence", "value": 50}, {"measurement": "Plant response rating, Field Bindweed", "setting": "[2]; 125 g ai/ha Preemergence", "value": 0}, {"measurement": "Plant response rating, Foxtail, Giant", "setting": "[3]; 16 g ai/ha Preemergence", "value": 0}, {"measurement": "Plant response rating, Foxtail, Giant", "setting": "[3]; 31 g ai/ha Preemergence", "value": 0}, {"measurement": "Plant response rating, Foxtail, Giant", "setting": "[3]; 62 g ai/ha Preemergence", "value": 30}, {"measurement": "Plant response rating, Foxtail, Giant", "setting": "[3]; 125 g ai/ha Preemergence", "value": 20}, {"measurement": "Plant response rating, Kochia", "setting": "kochia (Kochia scoparia); 16 g ai/ha Postemergence", "value": 65}, {"measurement": "Plant response rating, Kochia", "setting": "kochia (Kochia scoparia); 16 g ai/ha Preemergence", "value": 0}, {"measurement": "Plant response rating, Kochia", "setting": "kochia (Kochia scoparia); 31 g ai/ha Postemergence", "value": 75}, {"measurement": "Plant response rating, Kochia", "setting": "kochia (Kochia scoparia); 31 g ai/ha Preemergence", "value": 0}, {"measurement": "Plant response rating, Kochia", "setting": "kochia (Kochia scoparia); 62 g ai/ha Postemergence", "value": 90}, {"measurement": "Plant response rating, Kochia", "setting": "kochia (Kochia scoparia); 125 g ai/ha Postemergence", "value": 95}, {"measurement": "Plant response rating, Kochia", "setting": "kochia (Kochia scoparia); 125 g ai/ha Preemergence", "value": 98}, {"measurement": "Plant response rating, Kochia", "setting": "kochia (Kochia scoparia); Preemergence", "value": 70}, {"measurement": "Plant response rating, Crabgrass, Large", "setting": "[4]; 16 g ai/ha Preemergence", "value": 0}, {"measurement": "Plant response rating, Crabgrass, Large", "setting": "[4]; 31 g ai/ha Preemergence", "value": 0}, {"measurement": "Plant response rating, Crabgrass, Large", "setting": "[4]; 62 g ai/ha Preemergence", "value": 35}, {"measurement": "Plant response rating, Crabgrass, Large", "setting": "[4]; 125 g ai/ha Preemergence", "value": 60}, {"measurement": "Plant response rating, Morningglory", "setting": "[5]; 16 g ai/ha Preemergence", "value": 0}, {"measurement": "Plant response rating, Morningglory", "setting": "[5]; 31 g ai/ha Preemergence", "value": 0}, {"measurement": "Plant response rating, Morningglory", "setting": "[5]; 125 g ai/ha Preemergence", "value": 25}, {"measurement": "Plant response rating, Morningglory", "setting": "[5]; Preemergence", "value": 35}, {"measurement": "Plant response rating, Nightshade", "setting": "[6]; 31 g ai/ha Preemergence", "value": 65}, {"measurement": "Plant response rating, Nightshade", "setting": "[6]; 125 g ai/ha Preemergence", "value": 100}, {"measurement": "Plant response rating, Nightshade", "setting": "[6]; Preemergence", "value": 100}, {"measurement": "Plant response rating, Waterhemp_RES1", "setting": "[7]; 16 g ai/ha Postemergence", "value": 90}, {"measurement": "Plant response rating, Waterhemp_RES1", "setting": "[7]; 31 g ai/ha Postemergence", "value": 90}, {"measurement": "Plant response rating, Waterhemp_RES1", "setting": "[7]; 62 g ai/ha Postemergence", "value": 100}, {"measurement": "Plant response rating, Waterhemp_RES1", "setting": "[7]; 125 g ai/ha Postemergence", "value": 100}, {"measurement": "Plant response rating, Waterhemp_RES2", "setting": "[8]; 16 g ai/ha Postemergence", "value": 95}, {"measurement": "Plant response rating, Waterhemp_RES2", "setting": "[8]; 31 g ai/ha Postemergence", "value": 100}, {"measurement": "Plant response rating, Waterhemp_RES2", "setting": "[8]; 62 g ai/ha Postemergence", "value": 100}, {"measurement": "Plant response rating, Waterhemp_RES2", "setting": "[8]; 125 g ai/ha Postemergence", "value": 100}]}]}
